Assay results as given in ChEMBL document CHEMBL5634083, “Targeting polyketide synthase 13 for the treatment of tuberculosis” (Eur J Med Chem, 2023).
Values after ≈ are worked out from the molar mass of the structure shown.

What was measured:
Format in all cases: functional
[1] = test system: Mycobacterium tuberculosis; test: Antibacterial activity against fluoroquinolone-resistant Mycobacterium tuberculosis H37Rv assessed as reduction in bacterial growth measured after 16 to 18 hrs by serial dilution method; conditions: time 16-18 hrs
[2] = test system: Mycobacterium tuberculosis; test: Antimycobacterial activity against multi-drug resistant Mycobacterium tuberculosis
[3] = test system: Mycobacterium tuberculosis; test: Antitubercular activity against multi-drug resistant Mycobacterium tuberculosis assessed as reduction in microbial growth measured after 3 weeks by resazurin microplate reader assay; conditions: 504 h

Question: With CC(=O)c1c(C)n(-c2ccc(N(C)C)cc2)c2ccc(O)c(CN3CCCC3)c12 as the compound, how does the MIC90 [1] read?
Answer: 0.244 µM (≈ 0.0955 µg/mL)

Question: Which MIC [2] does the source give for CCOC(=O)c1c(NC(=O)c2c(F)c(F)c(F)c(F)c2F)sc2c1CCN(CC)C2 here?
Answer: 0.2 µM (≈ 0.0897 µg/mL)

Question: How did the MIC [3] turn out when O=C(c1ccccc1)c1cc(Cl)ccc1OCc1nc(-c2ccc(C(F)(F)F)cc2)no1 was run?
Answer: 16 µg/mL
